Measured values from patent US20130259884A1, “PEPTIDES” ([…] SL, priority 2010, published 2013).
Where a SMILES comes first, the peptide text is derived from it.

Test: Water solubility of peptides when preparing stock solutions
Assay type: physicochemical
Settings: stock solution in sterile distilled water or 100% DMSO; read-out: solubility of peptide (water soluble or water insoluble, dissolved in DMSO)
Description: For challenge, peptides were administered as follows: • Individual peptides (soluble). Individual water soluble peptides were dissolved as 10, 5 or 2.5 mg/ml stock solutions in sterile distilled water. Before use, each peptide was diluted in water to 2 mg/ml and 10 μl of this 2 mg/ml mix was added to 990 μl of media. Then 100 μl of this peptide/media mix was added to 100 μl of media containing 350,000 PBMC in an ELISPOT anti-IL-4 coated cell culture plate well for a final peptide concentration of 10 μg/ml. Identically diluted media only was added to the cells and used for the no peptide media control wells (media only). • Individual peptides (DMSO). Individual water insoluble peptides were dissolved in 100% DMSO to a stock concentration of 50 mg/ml. Before use each peptide was diluted in water to 2 mg/ml and then 10 μl of the 2 mg/ml mix was added to 990 μl of cell-culture media. Then 100 μl of this peptide/media mix was added to 100 μl of media containing 350,000 PBMC in an ELISPOT anti-IL-4 coated cell culture plate well for a final peptide concentration of 10 μg/ml. Identically diluted media only was added to the cells and used for the no peptide media control wells (media only). • A combination preparation containing Alt a 1 soluble peptides (33.2, 34.3, 35.4, 35.5, 37.3.1, 37.4.1, L6-5.01, L10-1.01, L10-2.01, L10-3), called Alt a 1 Sol. Each peptide was diluted from water stock to 2 mg/ml in sterile distilled water. Then 10 μl of each peptide required for the combined preparation was mixed and brought up to 1 ml in media. Then 100 μl of this peptide/media mix was added to 100 μl of media containing 350,000 PBMC in an ELISPOT anti-IL-4 coated cell culture plate well for a final concentration of each peptide of 10 μg/ml. Identically diluted media only was used for the no peptide control wells (media only). • A combination preparation containing Alt a 1 DMSO peptides (32.2.1, 38.2.1, 35.2, 35.3, L6-2, L6-3, L6-4, 38.3, 37.2), called Alt a 1 DMSO. Each peptide was diluted from DMSO stock to 2 mg/ml in sterile distilled water. Then 10 μl of each peptide required for the combined preparation was mixed and brought up to 1 ml in media. Then 100 μl of this peptide/media mix is added to 100 μl of media containing 350,000 PBMC in an ELISPOT anti-IL-4 coated cell culture plate well for a final concentration of each peptide of 10 μg/ml. Identically diluted media only was used for the no peptide control wells (media only). • A combination preparation containing non-Alt a 1 soluble peptides (40.2, 41.2, 43.2, 44.2, 46.2, 47.2.1, 56.2, 57.2.1, 60.2, 62.2.1, 67.2, 71.3), called Alt a Other Sol. Each peptide was diluted from water stock to 2 mg/ml in sterile distilled water. Then 10 μl of each peptide required for the combined preparation was mixed and brought up to 1 ml in media, Then 100 μl of this peptide/media mix was added to 100 μl of media containing 350,000 PBMC in an ELISPOT anti-IL-4 coated cell culture plate well for a final concentration of each peptide at 10 μg/ml. Identically diluted media only was used for the no peptide control wells (media only). • A combination preparation containing non-Alt a 1 DMSO peptides (39.2, 42.2, 45.2, 48.2.1, 50.2, 51.2.1, 61.2.1, 66.3.1, 68.2.1, 70.2, 71.2, 72.2), called Alt a Other DMSO. Each peptide was diluted from DMSO stock to 2 mg/ml in sterile distilled water. Then 10 ul of each peptide required for the combined preparation was mixed and brought up to 1 ml in media, Then 100 μl of this peptide/media mix was added to 100 μl of media containing 350,000 PBMC in an ELISPOT anti-IL-4 coated cell culture plate well for a final concentration of each peptide at 10 μg/ml. Identically diluted media only was used for the no peptide control wells (media only).

SMILES | solubility [µg/mL]
CC[C@H](C)[C@H](NC(=O)[C@@H](NC(=O)[C@@H](NC(=O)[C@H](Cc1ccccc1)NC(=O)[C@H](CCC(N)=O)NC(=O)[C@@H](N)CC(C)C)[C@@H](C)O)[C@@H](C)O)C(=O)N[C@@H](C)C(=O)N[C@@H](CO)C(=O)N[C@@H](CC(C)C)C(=O)N[C@@H](Cc1ccccc1)C(=O)N[C@@H](C)C(=O)N[C@@H](C)C(=O)N[C@@H](C)C(=O)NCC(=O)N[C@@H](CC(C)C)C(=O)O [Peptide 32.2.1, LQFTTIASLFAAAGL] (H-LQFTTIASLFAAAGL-OH) | < 2500
CC(C)C[C@H](NC(=O)CNC(=O)[C@H](C)NC(=O)[C@H](C)N)C(=O)N[C@@H](C)C(=O)N[C@@H](C)C(=O)N[C@@H](C)C(=O)N[C@@H](C)C(=O)N1CCC[C@H]1C(=O)N[C@@H](CC(C)C)C(=O)N[C@@H](CCC(=O)O)C(=O)N[C@@H](CO)C(=O)N[C@@H](CCCNC(=N)N)C(=O)N[C@@H](CCC(N)=O)C(=O)N[C@@H](CC(=O)O)C(=O)O [Peptide 33.2, AAGLAAAAPLESRQD] (H-AAGLAAAAPLESRQD-OH) | > 2500
CC[C@H](C)[C@H](NC(=O)[C@H](CCCCN)NC(=O)[C@H](Cc1c[nH]c2ccccc12)NC(=O)[C@@H](NC(=O)[C@H](Cc1ccc(O)cc1)NC(=O)[C@@H](N)CC(=O)O)C(C)C)C(=O)N[C@@H](CO)C(=O)N[C@@H](CCC(=O)O)C(=O)N[C@@H](Cc1ccccc1)C(=O)N[C@@H](Cc1ccc(O)cc1)C(=O)NCC(=O)N[C@@H](CCCNC(=N)N)C(=O)N[C@@H](CCCCN)C(=O)N1CCC[C@H]1C(=O)N[C@@H](CCC(=O)O)C(=O)O [Peptide 34.3, DYVWKISEFYGRKPE] (H-DYVWKISEFYGRKPE-OH) | > 2500
CC[C@H](C)[C@H](NC(=O)[C@H](CC(N)=O)NC(=O)[C@H](Cc1ccccc1)NC(=O)CNC(=O)[C@H](CC(C)C)NC(=O)[C@H](CO)NC(=O)[C@H](CC(N)=O)NC(=O)[C@H](Cc1ccc(O)cc1)NC(=O)[C@H](Cc1ccc(O)cc1)NC(=O)[C@@H](NC(=O)CNC(=O)[C@@H](N)CCC(=O)O)[C@@H](C)O)C(=O)N[C@@H](CCCCN)C(=O)N[C@@H](C)C(=O)N[C@H](C(=O)O)[C@@H](C)O [Peptide 35.2, EGTYYNSLGFNIKAT] (H-EGTYYNSLGFNIKAT-OH) | < 2500
CC[C@H](C)[C@H](NC(=O)[C@H](CC(N)=O)NC(=O)[C@H](Cc1ccccc1)NC(=O)CNC(=O)[C@H](CC(C)C)NC(=O)[C@H](CO)NC(=O)[C@H](CC(N)=O)NC(=O)[C@@H](N)Cc1ccc(O)cc1)C(=O)N[C@@H](CCCCN)C(=O)N[C@@H](C)C(=O)N[C@H](C(=O)N[C@@H](CC(N)=O)C(=O)NCC(=O)NCC(=O)N[C@H](C(=O)O)[C@@H](C)O)[C@@H](C)O [Peptide 35.3, YNSLGFNIKATNGGT] (H-YNSLGFNIKATNGGT-OH) | < 2500
CC[C@H](C)[C@H](NC(=O)[C@H](CC(N)=O)NC(=O)[C@H](Cc1ccccc1)NC(=O)CNC(=O)[C@H](CC(C)C)NC(=O)[C@@H](N)CO)C(=O)N[C@@H](CCCCN)C(=O)N[C@@H](C)C(=O)N[C@H](C(=O)N[C@@H](CC(N)=O)C(=O)NCC(=O)NCC(=O)N[C@H](C(=O)N[C@@H](CC(C)C)C(=O)N[C@@H](CC(=O)O)C(=O)O)[C@@H](C)O)[C@@H](C)O [Peptide 35.4, SLGFNIKATNGGTLD] (H-SLGFNIKATNGGTLD-OH) | > 2500
CC[C@H](C)[C@H](NC(=O)[C@H](CC(N)=O)NC(=O)[C@H](Cc1ccccc1)NC(=O)CN)C(=O)N[C@@H](CCCCN)C(=O)N[C@@H](C)C(=O)N[C@H](C(=O)N[C@@H](CC(N)=O)C(=O)NCC(=O)NCC(=O)N[C@H](C(=O)N[C@@H](CC(C)C)C(=O)N[C@@H](CC(=O)O)C(=O)N[C@@H](Cc1ccccc1)C(=O)N[C@H](C(=O)O)[C@@H](C)O)[C@@H](C)O)[C@@H](C)O [Peptide 35.5, GFNIKATNGGTLDFT] (H-GFNIKATNGGTLDFT-OH) | > 2500
CC[C@H](C)[C@H](NC(=O)[C@H](CC(=O)O)NC(=O)[C@H](CC(=O)O)NC(=O)[C@@H](N)CO)C(=O)N[C@H](C(=O)N[C@@H](Cc1ccc(O)cc1)C(=O)N[C@H](C(=O)N[C@@H](C)C(=O)N[C@H](C(=O)N[C@@H](C)C(=O)N[C@H](C(=O)N[C@@H](CC(C)C)C(=O)N1CCC[C@H]1C(=O)N[C@@H](CC(N)=O)C(=O)N[C@@H](Cc1ccc(O)cc1)C(=O)O)[C@@H](C)O)[C@@H](C)O)C(C)C)[C@@H](C)O [Peptide 37.2, SDDITYVATATLPNY] (H-SDDITYVATATLPNY-OH) | < 2500
CC[C@H](C)[C@H](NC(=O)[C@@H](N)CC(=O)O)C(=O)N[C@H](C(=O)N[C@@H](Cc1ccc(O)cc1)C(=O)N[C@H](C(=O)N[C@@H](C)C(=O)N[C@H](C(=O)N[C@@H](C)C(=O)N[C@H](C(=O)N[C@@H](CC(C)C)C(=O)N1CCC[C@H]1C(=O)N[C@@H](CC(N)=O)C(=O)N[C@@H](Cc1ccc(O)cc1)C(=O)N[C@H](C(=O)N[C@@H](CCCNC(=N)N)C(=O)O)C(C)C)[C@@H](C)O)[C@@H](C)O)C(C)C)[C@@H](C)O [Peptide 37.3.1, DITYVATATLPNYVR] (H-DITYVATATLPNYVR-OH) | > 2500
CC(C)C[C@H](NC(=O)[C@@H](NC(=O)[C@H](C)NC(=O)[C@@H](N)[C@@H](C)O)[C@@H](C)O)C(=O)N1CCC[C@H]1C(=O)N[C@@H](CC(N)=O)C(=O)N[C@@H](Cc1ccc(O)cc1)C(=O)N[C@H](C(=O)N[C@@H](CCCNC(=N)N)C(=O)N[C@@H](C)C(=O)NCC(=O)NCC(=O)N[C@@H](CC(N)=O)C(=O)NCC(=O)N1CCC[C@H]1C(=O)O)C(C)C [Peptide 37.4.1, TATLPNYVRAGGNGP] (H-TATLPNYVRAGGNGP-OH) | > 2500
CC[C@H](C)[C@H](NC(=O)[C@H](Cc1ccc(O)cc1)NC(=O)[C@H](C)NC(=O)[C@H](CC(=O)O)NC(=O)[C@H](C)NC(=O)[C@@H](NC(=O)CNC(=O)[C@H](CCC(N)=O)NC(=O)[C@@H](NC(=O)[C@@H](NC(=O)[C@H](Cc1ccccc1)NC(=O)[C@H](CC(=O)O)NC(=O)[C@H](CCCCN)NC(=O)[C@@H]1CCCN1)C(C)C)C(C)C)C(C)C)C(=O)N[C@H](C(=O)O)[C@@H](C)O [Peptide 38.2.1, PKDFVVQGVADAYIT] (H-PKDFVVQGVADAYIT-OH) | < 2500
CC[C@H](C)[C@H](NC(=O)[C@H](Cc1ccc(O)cc1)NC(=O)[C@H](C)NC(=O)[C@H](CC(=O)O)NC(=O)[C@H](C)NC(=O)[C@@H](N)C(C)C)C(=O)N[C@H](C(=O)N[C@@H](CC(C)C)C(=O)N[C@H](C(=O)N[C@H](C(=O)N[C@@H](CC(C)C)C(=O)N1CCC[C@H]1C(=O)N[C@@H](CCCCN)C(=O)N[C@@H](CO)C(=O)N[C@@H](CO)C(=O)O)[C@@H](C)O)C(C)C)[C@@H](C)O [Peptide 38.3, VADAYITLVTLPKSS] | < 2500
CC(C)C[C@H](NC(=O)[C@H](CCCNC(=N)N)NC(=O)[C@H](CC(N)=O)NC(=O)[C@@H](N)CC(=O)O)C(=O)N[C@H](C(=O)N[C@@H](CC(N)=O)C(=O)N[C@@H](Cc1c[nH]cn1)C(=O)N[C@@H](Cc1ccccc1)C(=O)N[C@H](C(=O)N[C@@H](CC(N)=O)C(=O)N[C@@H](CCC(=O)O)C(=O)N[C@@H](Cc1ccccc1)C(=O)N[C@@H](CCCCN)C(=O)N[C@@H](CCCNC(=N)N)C(=O)N[C@@H](CCCCN)C(=O)O)[C@@H](C)O)C(C)C [Peptide 40.2, DNRLVNHFTNEFKRK] (H-DNRLVNHFTNEFKRK-OH; N-terminus and C-terminus assumed) | > 2500
